pKi: −log10 of the molar value.
Experiments:
Assay in all cases: initial rates of NPβglc hydrolysis at […] nm, Lineweaver-Burk replots
Format in all cases: biochemical
Sfβgly [1] = biological target: T1, Sfβgly (Spodoptera frugiperda, UniProt O61594, S247Y)
T1 construct: only point mutants assayed here

Sfβgly [2] = biological target: T2, Sfβgly (Spodoptera frugiperda, UniProt O61594, N249Q)
T2 construct: only point mutants assayed here

Sfβgly [3] = biological target: T3, Sfβgly (Spodoptera frugiperda, UniProt O61594, F251A)
T3 construct: only point mutants assayed here

Sfβgly [4] = biological target: T4, Sfβgly (Spodoptera frugiperda, UniProt O61594, N249A)
T4 construct: only point mutants assayed here
T4 sequence (O61594 17-509 limits assumed, stated change not applied): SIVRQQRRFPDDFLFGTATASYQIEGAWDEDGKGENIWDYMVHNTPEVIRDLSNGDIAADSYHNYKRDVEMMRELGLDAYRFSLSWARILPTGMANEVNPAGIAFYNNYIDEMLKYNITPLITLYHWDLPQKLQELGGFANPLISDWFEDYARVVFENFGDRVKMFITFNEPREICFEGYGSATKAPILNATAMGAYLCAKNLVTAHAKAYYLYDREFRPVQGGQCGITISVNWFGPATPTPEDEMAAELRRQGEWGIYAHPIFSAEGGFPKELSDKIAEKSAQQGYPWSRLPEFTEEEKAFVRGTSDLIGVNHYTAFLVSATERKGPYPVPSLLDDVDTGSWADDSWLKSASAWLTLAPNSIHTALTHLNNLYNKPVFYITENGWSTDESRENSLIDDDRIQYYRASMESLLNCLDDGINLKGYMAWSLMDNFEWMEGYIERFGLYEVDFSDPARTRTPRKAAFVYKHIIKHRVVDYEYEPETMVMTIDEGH

T1 sequence (O61594 17-509 limits assumed, stated change not applied): as above
T3 sequence (O61594 17-509 limits assumed, stated change not applied): as above
T2 sequence (O61594 17-509 limits assumed, stated change not applied): as above

## NC(CO)(CO)CO [Tris, 2‐amino‐2‐(hydroxymethyl)‐1,3‐propanediol]
Sfβgly [1]
  pKi: 1.15
Sfβgly [2]
  pKi: 1.49
Sfβgly [3]
  pKi: 2.00
Sfβgly [4]
  pKi: 3.22

## c1c[nH]cn1 [imidazole]
Sfβgly [1]
  pKi: 1.46
Sfβgly [2]
  pKi: 1.41
Sfβgly [3]
  pKi: 1.92
Sfβgly [4]
  pKi: 1.74
